Values quoted from earlier work, collected in patent US10570353B2, “Cleaning compositions” (Ascent IP Holdings, LLC, priority 2009, dated 2020).

B1: LIPOLASE® 100L: lipase derived from Thermomyces lanuginosus, from Novo-Nordisk A/S, liquid solution (protein, UniProt O59952 23-291, looked up)
Lipase: EVSQDLFNQFNLFAQYSAAAYCGKNNDAPAGTNITCTGNACPEVEKADATFLYSFEDSGVGDVTGFLALDNTNKLIVLSFRGSRSIENWIGNLNFDLKEINDICSGCRGHDGFTSSWRSVADTLRQKVEDAVREHPDYRVVFTGHSLGGALATVAGADLRGNGYDIDVFSYGAPRVGNRAFAEFLTVQTGGTLYRITHTNDIVPRLPPREFGYSHSSPEYWIKSGTLVPVTRNDIVKIEGIDATGGNNQPNIPDIPAHLWYFGLIGTCL
modifications: liquid commercial formulation
notes: lipase derived from Thermomyces lanuginosus, from Novo-Nordisk A/S, liquid solution
B2: LIPOLASE® 100T: lipase derived from Thermomyces lanuginosus, from Novo-Nordisk A/S, granular solid (protein, UniProt O59952 23-291, looked up)
Lipase: B1 Lipase
modifications: granular commercial formulation
notes: lipase derived from Thermomyces lanuginosus, from Novo-Nordisk A/S, granular solid

Key:
[1] = identified from data sources
[2] = trace constituents of Trilon M Liquid
[3] = published toxicity data
[4] = supplier's nominal lipase activity

Row | Molecule | skin sensitizer listing [1] | other results
1 | Cn1sccc1=O [2-Methyl-4-isothiazolin-3-one] | skin sensitizers | 
2 | Cn1sc(Cl)cc1=O [5-Chloro-2-Methyl-4-isothiazolin-3-one] | skin sensitizers | 
3 | C=O [formaldehyde] |  | carcinogenicity listing [2]: suspected carcinogens
4 | OO [hydrogen peroxide] | skin sensitizers | mutagenicity [3]: potential risk for mutagenicity
5 | [Na+].[OH-] [sodium hydroxide] | skin sensitizers | 
6 | O=C([O-])CN(CC(=O)[O-])CC(=O)[O-].[Na+].[Na+].[Na+] [trisodium nitrilotriacetate] |  | carcinogenicity listing [2]: suspected carcinogens
7 | cocamidopropyl betaine | skin sensitizers | 
8 | B1 |  | nominal activity [4]: 100 kLU/g
9 | B2 |  | nominal activity [4]: 100 kLU/g
